Test results from patent publication US9758537B2 (Achillion Pharmaceuticals, Inc., priority 2014, dated 2017).

biological target: Human factor D (Homo sapiens (Human), UniProt P00746); test: Human Factor D Assay; type: biochemical; details: human factor D 80 nM, substrate Z-L-Lys-SBzl, DTNB, OD405
Procedure: Human factor D (purified from human serum, Complement Technology, Inc.) at 80 nM final concentration is incubated with test compound at various concentrations for 5 minutes at room temperature in 50 mM Tris, 1M NaCl, pH 7.5. A synthetic substrate Z-L-Lys-SBzl and DTNB (Ellman's reagent) are added to final concentrations of 10 μM each. The increase in color is recorded at OD405 nm in a microplate in kinetic mode over 30 minutes with 30 second time points in a […]. IC50 values are calculated by non-linear regression from the percentage of inhibition of complement factor D activity as a function of test compound concentration.

Human factor D, sequence (P00746 26-253): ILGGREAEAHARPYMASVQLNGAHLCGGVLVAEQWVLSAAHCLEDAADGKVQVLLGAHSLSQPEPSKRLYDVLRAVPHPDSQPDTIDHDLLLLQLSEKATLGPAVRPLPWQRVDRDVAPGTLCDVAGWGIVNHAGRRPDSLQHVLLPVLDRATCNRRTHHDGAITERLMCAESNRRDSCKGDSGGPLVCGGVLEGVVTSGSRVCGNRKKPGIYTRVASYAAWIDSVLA

IC50 [µM]	Compound
> 10	CC(=O)n1cc(NC(=O)[C@@H]2C[C@@H](F)CN2C(=O)NCc2cccc(Cl)c2F)c2ccccc21 [Compound 3, (2S,4R)-N2-(1-acetyl-1H-indol-3-yl)-N1-(3-chloro-2-fluorobenzyl)-4-fluoropyrrolidine-1,2-dicarboxamide]
> 10	CC(=O)n1cc(NC(=O)[C@@H]2C[C@H](F)CN2C(=O)NCc2cccc(Cl)c2F)c2ccccc21 [Compound 4, (2S,4S)-N2-(1-acetyl-1H-indol-3-yl)-N1-(3-chloro-2-fluorobenzyl)-4-fluoropyrrolidine-1,2-dicarboxamide]
> 10	CC(=O)n1cc(NC(=O)[C@@H]2C[C@H](F)CN2C(=O)NCc2ccccc2)c2ccccc21 [Compound 5, (2S,4S)-N2-(1-acetyl-1H-indol-3-yl)-N1-benzyl-4-fluoropyrrolidine-1,2-dicarboxamide]
> 10	NC(=O)n1cc(NC(=O)N2C[C@H](F)C[C@H]2C(=O)NS(=O)(=O)c2cccc(Cl)c2F)c2ccccc21 [Compound 6, (2S,4R)-N1-(1-carbamoyl-1H-indol-3-yl)-N2-(3-chloro-2-fluorophenylsulfonyl)-4-fluoropyrrolidine-1,2-dicarboxamide]
> 10	CC(=O)n1cc(NC(=O)N2C[C@H](F)C[C@H]2C(=O)NS(=O)(=O)c2cccc(Cl)c2F)c2ccccc21 [Compound 7, (2S,4R)-N1-(1-acetyl-1H-indol-3-yl)-N2-(3-chloro-2-fluorophenylsulfonyl) - 4-fluoropyrrolidine-1,2-dicarboxamide]
> 10	CC(=O)n1cc(NC(=O)[C@H]2CC(F)(F)CN2C(=O)NCc2cccc(Cl)c2F)c2ccccc21 [Compound 8, (R)-N2-(1-acetyl-1H-indol-3-yl)-N1-(3-chloro-2-fluorobenzyl)-4,4-difluoropyrrolidine-1,2-dicarboxamide]
> 10	CC(=O)n1cc(NC(=O)[C@H]2CCCN2C(=O)NCc2cccc(Cl)c2F)c2ccccc21 [Compound 9, (R)-N2-(1-acetyl-1H-indol-3-yl)-N1-(3-chloro-2-fluorobenzyl) pyrrolidine-1,2-dicarboxamide]
> 10	CC(=O)n1cc(NC(=O)[C@H]2CCCN2C(=O)Nc2cccc(OC(F)(F)F)c2F)c2ccccc21 [Compound 16, (R)-N2-(1-acetyl-1H-indol-3-yl)-N1-(2-fluoro-3-(trifluoromethoxy)phenyl)pyrrolidine-1,2-dicarboxamide]
> 10	CC(=O)n1cc(NC(=O)[C@H]2CC(F)(F)CN2C(=O)Cc2cccc(Cl)c2F)c2ccccc21 [Compound 17, (R)-N-(1-acetyl-1H-indol-3-yl)-1-(2-(3-chloro-2-fluorophenyl)acetyl)-4,4-difluoropyrrolidine-2-carboxamide]
> 10	COc1ccc2c(O[C@@H]3C[C@@H](C(=O)NCc4cccc(Cl)c4F)N(C(=O)Nc4cn(C(C)=O)c5ccccc45)C3)cc(-c3ccccc3)nc2c1 [Compound 19, (2S,4R)-N1-(1-acetyl-1H-indol-3-yl)-N2-(3-chloro-2-fluorobenzyl)-4-(7-methoxy-2-phenylquinolin-4-yloxy)pyrrolidine-1,2-dicarboxamide]
> 10	CC(=O)n1cc(NC(=O)Nc2cn(C(C)=O)c3ccccc23)c2ccccc21 [Compound 20, 1,3-bis(1-acetyl-1H-indol-3-yl)urea]
> 10	NC(=O)N1CC(NC(=O)[C@@H]2CCC[C@H]2C(=O)NCc2cccc(Cl)c2F)c2ccccc21 (stereo partly drawn) [Compound 26, (1R,2R)-N1-(1-carbamoylindolin-3-yl)-N2-(3-chloro-2-fluorobenzyl)cyclopentane-1,2-dicarboxamide]
> 10	NC(=O)n1cc(NC(=O)N2C[C@H](F)C[C@H]2Cn2cc(-c3ccc(F)cc3)nn2)c2ccccc21 [Compound 28, 3-((2S,4R)-4-fluoro-2-((4-(4-fluorophenyl)-1H-1,2,3-triazol-1-yl)methyl)pyrrolidine-1-carboxamido)-1H-indole-1-carboxamide]
> 10	NC(=O)N1C[C@H](F)C[C@H]1Cn1cc(-c2ccc(F)c(Cl)c2)nn1 [Compound 30, (2S,4R)-2-((4-(3-chloro-4-fluorophenyl)-1H-1,2,3-triazol-1-yl)methyl)-4-fluoropyrrolidine-1-carboxamide]
> 10	NC(=O)n1cc(NC(=O)C2=C(C(=O)NCc3cccc(Cl)c3F)CCC2)c2ccccc21 [Compound 31, N1-(1-carbamoyl-1H-indol-3-yl)-N2-(3-chloro-2-fluorobenzyl)cyclopent-1-ene-1,2-dicarboxamide]
< 1	N#Cc1cn(CC(=O)N2C[C@H](F)C[C@H]2C(=O)NCc2cccc(Cl)c2F)c2ccccc12 [Compound 36, (2S,4R)-N-(3-chloro-2-fluorobenzyl)-1-(2-(3-cyano-1H-indol-1-yl)acetyl)-4-fluoropyrrolidine-2-carboxamide]

Continued, molecule first:

Compound	IC50 [µM]
CC(=O)c1cn(CC(=O)N2[C@H](C(=O)NCc3cccc(Cl)c3F)C[C@@H]3CCCC[C@@H]32)c2ccccc12 [Compound 1, (2S,3aS,7aS)-1-(2-(3-acetyl-1H-indol-1-yl)acetyl)-N-(3-chloro-2-fluorobenzyl)octahydro-1H-indole-2-carboxamide]	< 1
CC(=O)c1cn(CC(=O)N2C[C@H](F)C[C@H]2c2ncc(-c3cccc(Cl)c3)[nH]2)c2ccccc12 [Compound 11, 2-(3-acetyl-1H-indol-1-yl)-1-((2S,4R)-2-(5-(3-chlorophenyl)-1H-imidazol-2-yl)-4-fluoropyrrolidin-1-yl)ethanone]	> 10
CC(=O)c1cn(CC(=O)N2C[C@H](F)C[C@H]2c2nc3cc(Cl)ccc3[nH]2)c2ccccc12 [Compound 15, 2-(3-acetyl-1H-indol-1-yl)-1-((2S,4R)-2-(5-chloro-1H-benzo[d]imidazol-2-yl)-4-fluoropyrrolidin-1-yl)ethanone]	> 10
CC(=O)c1cn(CC(=O)N2CC[C@@H](OCC3CC3)[C@H]2C(=O)NCc2cccc(Cl)c2F)c2ccccc12 [Compound 18, (2S,3R)-1-(2-(3-acetyl-1H-indol-1-yl)acetyl)-N-(3-chloro-2-fluorobenzyl)-3-(cyclopropylmethoxy) pyrrolidine-2-carboxamide]	< 1
CC(=O)c1cn(CC(=O)N2C[C@H](F)[C@@H](OCC3CC3)[C@H]2C(=O)NCc2cccc(Cl)c2F)c2cc(O)ccc12 [Compound 21, (2S,3S,4S)-1-(2-(3-acetyl-6-hydroxy-1H-indol-1-yl)acetyl)-N-(3-chloro-2-fluorobenzyl)-3-(cyclopropylmethoxy)-4-fluoropyrrolidine-2-carboxamide]	< 1
O=C(c1cn(CC(=O)N2[C@@H]3C[C@@H]3C[C@H]2C(=O)NCc2cccc(Cl)c2F)c2ccccc12)C1CC1 [Compound 22, (1R,3S,5R)-N-(3-chloro-2-fluorobenzyl)-2-(2-(3-(cyclopropanecarbonyl)-1H-indol-1-yl)acetyl)-2-azabicyclo[3.1.0]hexane-3-carboxamide]	< 1
O=C(c1cn(CC(=O)N2C[C@H](F)C[C@H]2C(=O)NCc2cccc(Cl)c2F)c2ccccc12)C1CC1 [Compound 24, (2S,4R)-N-(3-chloro-2-fluorobenzyl)-1-(2-(3-(cyclopropanecarbonyl)-1H-indol-1-yl)acetyl)-4-fluoropyrrolidine-2-carboxamide]	< 1
CC(=O)c1cn(CC(=O)N2CC(F)C(OCC3CC3)[C@H]2C(=O)NCc2cccc(Cl)c2F)c2cc(O)ccc12 (stereo partly drawn) [Compound 25, (2S)-1-(2-(3-acetyl-6-hydroxy-1H-indol-1-yl)acetyl)-N-(3-chloro-2-fluorobenzyl)-3-(cyclopropylmethoxy)-4-fluoropyrrolidine-2-carboxamide]	< 1
CC(=O)c1cn(CC(=O)N2C[C@H](F)C[C@H]2Cn2cc(-c3ccc(F)cc3)nn2)c2ccccc12 [Compound 27, 2-(3-acetyl-1H-indol-1-yl)-1-((2S,4R)-4-fluoro-2-((4-(4-fluorophenyl)-1H-1,2,3-triazol-1-yl)methyl)pyrrolidin-1-yl)ethanone]	> 10
COc1ccc2c(O[C@@H]3C[C@@H](C(=O)NCc4cccc(Cl)c4F)N(C(=O)Cn4cc(C(C)=O)c5ccccc54)C3)cc(-c3ccccc3)nc2c1 [Compound 29, (2S,4R)-1-(2-(3-acetyl-1H-indol-1-yl)acetyl)-N-(3-chloro-2-fluorobenzyl)-4-(7-methoxy-2-phenylquinolin-4-yloxy)pyrrolidine-2-carboxamide]	> 10
CC(=O)c1cn(CC(=O)N2C[C@H](F)C[C@H]2C(=O)N2Cc3ccccc3C2)c2ccccc12 [Compound 33, 2-(3-acetyl-1H-indol-1-yl)-1-((2S,4R)-4-fluoro-2-(isoindoline-2-carbonyl)pyrrolidin-1-yl)ethanone]	> 10
CC(=O)c1cn(CC(=O)N2C[C@H](F)C[C@H]2C(=O)N(C)Cc2cccc(Cl)c2F)c2ccccc12 [Compound 34, (2S,4R)-1-(2-(3-acetyl-1H-indol-1-yl)acetyl)-N-(3-chloro-2-fluorobenzyl)-4-fluoro-N-methylpyrrolidine-2-carboxamide]	> 10
CC(=O)c1cn(CC(=O)N2[C@H](C(=O)NCc3cccc(Cl)c3F)C[C@@H]3CCCC[C@@H]32)c2cc(O)ccc12 [Compound 35, (2S,3aS,7aS)-1-(2-(3-acetyl-6-hydroxy-1H-indol-1-yl)acetyl)-N-(3-chloro-2-fluorobenzyl)octahydro-1H-indole-2-carboxamide]	< 1
O=C1CCCc2c1c1ccccc1n2CC(=O)N1C[C@H](F)C[C@H]1C(=O)NCc1cccc(Cl)c1F [Compound 37, (2S,4R)-N-(3-chloro-2-fluorobenzyl)-4-fluoro-1-(2-(4-oxo-3,4-dihydro-1H-carbazol-9(2H)-yl)acetyl)pyrrolidine-2-carboxamide]	< 1
